In general, pIC50 refers to −log10 of the IC50, conventionally taken in molar units. Low values mean a high IC50, high ones a low IC50.

pIC50: −log10 of the molar value.

The values that follow come from article PMC5693604 (Cell chemical biology, 2017).

Format in all cases: cell-based
Assay [1] concerns the target T1, CHEK2 (Homo sapiens, UniProt O96017). The experiment in a line: competitive gel-based ABPP with probe […] in HEK293T cells.
Assay [2] addresses T2, NT5DC1 (5'-Nucleotidase-Domain Containing 1) (Homo sapiens, UniProt Q5TFE4).
T2 sequence (Q5TFE4 1-455): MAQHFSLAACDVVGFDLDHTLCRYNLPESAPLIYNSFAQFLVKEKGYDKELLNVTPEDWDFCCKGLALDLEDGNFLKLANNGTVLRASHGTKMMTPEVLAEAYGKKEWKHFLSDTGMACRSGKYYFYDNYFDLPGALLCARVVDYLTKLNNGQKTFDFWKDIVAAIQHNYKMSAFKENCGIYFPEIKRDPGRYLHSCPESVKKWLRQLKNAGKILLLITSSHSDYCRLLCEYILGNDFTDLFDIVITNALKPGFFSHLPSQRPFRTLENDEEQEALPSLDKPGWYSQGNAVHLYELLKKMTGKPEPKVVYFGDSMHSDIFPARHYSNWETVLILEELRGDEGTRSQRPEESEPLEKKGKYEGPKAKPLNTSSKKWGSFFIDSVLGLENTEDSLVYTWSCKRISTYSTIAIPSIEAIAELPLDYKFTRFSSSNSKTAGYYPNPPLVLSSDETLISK
The assay is described as above.

Assay [3] concerns the target T1, CHEK2. The experiment in a line: FRET Z'-LYTE kinase assay.

T1 sequence (O96017 whole entry): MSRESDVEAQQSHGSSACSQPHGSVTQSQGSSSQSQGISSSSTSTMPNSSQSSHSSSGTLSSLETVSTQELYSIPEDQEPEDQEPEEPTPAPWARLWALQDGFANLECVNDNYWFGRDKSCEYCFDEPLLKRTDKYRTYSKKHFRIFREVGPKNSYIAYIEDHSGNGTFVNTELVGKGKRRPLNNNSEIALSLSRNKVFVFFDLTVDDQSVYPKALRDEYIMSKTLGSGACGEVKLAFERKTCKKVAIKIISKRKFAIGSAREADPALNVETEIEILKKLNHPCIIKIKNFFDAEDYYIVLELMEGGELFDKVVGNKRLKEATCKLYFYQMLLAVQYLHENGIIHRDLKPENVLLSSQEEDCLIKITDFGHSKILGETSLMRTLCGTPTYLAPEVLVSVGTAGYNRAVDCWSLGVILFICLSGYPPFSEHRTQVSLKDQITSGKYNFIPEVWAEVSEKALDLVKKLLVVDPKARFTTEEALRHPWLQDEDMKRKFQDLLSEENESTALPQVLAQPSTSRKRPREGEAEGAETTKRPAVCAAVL

`C=CC(=O)N[C@@H]1CN(c2nc(Nc3cn(C)nc3OC)c3ncn(C)c3n2)C[C@H]1F` [compound 2, N-((3R,4R)-4-Fluoro-1-(6-((3-methoxy-1-methyl-1H-pyrazol-4-yl)amino)-9-methyl-9H-purin-2-yl)pyrrolidine-3-yl)acrylamide] had a negative logarithm of the IC50 (pIC50) in assay [1] of approximately 5.40.

Consider `C=CC(=O)Nc1cccc(Nc2nc(Nc3ccc(N4CCN(C(C)=O)CC4)cc3OC)ncc2C(F)(F)F)c1` [compound 3, rociletinib], for which the results for the pIC50 in assay [2] and in assay [3] were approximately 6.44 and 6.46, respectively.
